From US6271234A, “1,4-disubstituted piperazines” (Recordati S.A., Chemical and Pharmaceutical Company, priority 1997, dated 2001)

What was measured:
[1] = molecular target: T1, human 5-HT1A -serotoninergic receptor (Homo sapiens, UniProt P08908); assay: Radioreceptor binding to recombinant 5-HT1A receptors ([3H]8-OH-DPAT, HeLa cell membranes); conditions: [3H]8-OH-DPAT 0.2-1 nM, 30 min at 30° C., read-out: Binding affinity for the 5-HT1A receptor, Ki
T1 construct: expressed in transfected cells; host or cells: HeLa (human cell line), stably transfected; cell membranes
T1 sequence (P08908 1-422): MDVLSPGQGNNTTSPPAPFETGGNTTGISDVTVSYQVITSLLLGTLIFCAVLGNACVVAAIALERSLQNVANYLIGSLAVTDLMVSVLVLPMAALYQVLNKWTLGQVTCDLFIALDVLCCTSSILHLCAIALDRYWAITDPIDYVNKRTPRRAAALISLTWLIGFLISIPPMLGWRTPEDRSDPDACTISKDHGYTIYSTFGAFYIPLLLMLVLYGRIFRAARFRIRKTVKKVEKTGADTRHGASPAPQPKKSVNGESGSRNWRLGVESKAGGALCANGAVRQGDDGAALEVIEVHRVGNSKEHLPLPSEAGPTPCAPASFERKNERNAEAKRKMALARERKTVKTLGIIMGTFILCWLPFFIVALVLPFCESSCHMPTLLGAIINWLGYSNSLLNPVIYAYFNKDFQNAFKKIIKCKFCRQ
Procedure: HeLa cells were grown as monolayers in Dulbecco's modified Eagle's medium (DMEM), supplemented with 10% fetal calf serum and gentamicin ([…]), 5% CO2 at 37° C. Cells were detached from the growth flash at 95% confluence by a cell scraper and were lysed in ice-cold 5 mM Tris and 5 mM EDTA buffer (pH 7.4). Homogenates were centrifuged at 40000×g×20 min and pellets were resuspended in a small volume of ice-cold 5 mM Tris 5 and 5 mM EDTA buffer (pH 7.4) and immediately frozen and stored at -70° C. until use. On the day of experiment, cell membranes were resuspended in binding buffer: 50 mM Tris HCl (pH 7.4), 2.5 mM MgCl2, […] (Fargin et al., Nature 335, 358-360, 1988). Membranes were incubated in a final volume of 1 ml for 30 min at 30° C. with 0.2-1 nM [^3 H]8-OH-DPAT, in absence or presence of competing drugs; non-specific binding was determined in the presence of […]. The incubation was stopped by addition of ice-cold Tris-HCl buffer and rapid filtration through 0.2% polyethyleneimine pretreated Whatman GF/B or Schleicher & Schuell GF52 filters.

[2] = system: rhythmic bladder voiding contractions; assay: Effects on volume-induced rhythmic bladder voiding contractions in anaesthetized rats; type: in vivo, Female Sprague Dawley rats; conditions: for Bladder Quiescence (disappearance time of contractions): mean ± S.E.
Procedure: The animals were housed with free access to food and water and were maintained on a forced 12 h alternating light-dark cycle at 22-24° C. for at least one week, except during the experiment. […] The catheter was tied in place with a ligature around the external urethral orifice and was connected with conventional pressure transducers (Statham P23 ID/P23 XL). […] The bladder was then filled via the recording catheter by incremental volumes of warm (37° C.) saline until reflex bladder voiding contractions occurred (usually 0.8-1.5 ml).
After cessation of the effect of drug injection, the height of the peaks was compared with that previously recorded after the intravenous administration of vehicle alone.

[3] = system: rhythmic bladder voiding contractions; conditions: urethane-anesthetized rats; background statement; cited from earlier work
[4] = i.v., urethane-anesthetized rats

Ki [1] [nM] | Structure (SMILES) | Bladder Quiescence (disappearance time of contractions) ([2]; 100 μg/kg i.v.) [min] | Bladder Quiescence (disappearance time of contractions) ([2]; 1000 μg/kg i.v.) [min] | Bladder Quiescence (disappearance time of contractions) ([2]; 3000 μg/kg i.v.) [min] | further results
0.31 | N#Cc1ccccc1N1CCN(CCN(C(=O)C2CCCCC2)c2ccccn2)CC1 [Ex. 4, 1-[N-cyclohexylcarbonyl-N-(2-pyridyl)-2-aminoethyl]-4-(2-cyanophenyl) piperazine] |  |  |  | 
14.3 | COc1cc(N)ccc1N1CCN(CCN(C(=O)C2CCCCC2)c2ccccn2)CC1 [Ex. 6, 1-[N-cyclohexylcarbonyl-N-(2-pyridyl)-2-aminoethyl]-4-(4-amino-2-methoxyphenyl)piperazine] | 9.82 ± 1.18 | 15.00 ± 3.11 |  | Bladder Quiescence (disappearance time of contractions) ([2]; 10 μg/kg i.v.): 6.75 ± 1.66 min
0.45 | O=C(C1CCCCC1)N(CCN1CCN(c2cc(Cl)ccc2Cl)CC1)c1ccccn1 [Ex. 10, 1-[N-cyclohexylcarbonyl-N-(2-pyridyl)-2-aminoethyl]-4-(2,5-dichlorophenyl)piperazine] |  |  |  | 
8.15 | COc1cc(NC(C)=O)ccc1N1CCN(CCN(C(=O)C2CCCCC2)c2ccccn2)CC1 [Ex. 7, 1-[N-cyclohexylcarbonyl-N-(2-pyridyl)-2-aminoethyl]-4-(4-acetylamino-2-methoxyphenyl)piperazine] | 7.97 ± 1.78 | 20.63 ± 3.31 |  | Bladder Quiescence (disappearance time of contractions) ([2]; 300 μg/kg i.v.): 8.65 ± 1.81 min

The next lines start with the compound.

Structure (SMILES) | Ki [1] [nM] | Bladder Quiescence (disappearance time of contractions) ([2]; 100 μg/kg i.v.) [min] | Bladder Quiescence (disappearance time of contractions) ([2]; 1000 μg/kg i.v.) [min] | Bladder Quiescence (disappearance time of contractions) ([2]; 3000 μg/kg i.v.) [min] | further results
O=C(C1CCCCC1)N(CCN1CCN(c2ccccc2OC(F)(F)F)CC1)c1ccccn1 [Ex. 1, 1-[N-cyclohexylcarbonyl-N-(2-pyridyl)-2-aminoethyl]-4-(2-trifluoromethoxyphenyl)piperazine] | 0.86 | 5.85 ± 1.87 | 16.25 ± 1.38 | 18.40 ± 4.12 | 
COc1cc(NS(C)(=O)=O)ccc1N1CCN(CCN(C(=O)C2CCCCC2)c2ccccn2)CC1 [Ex. 8, 1-[N-cyclohexylcarbonyl-N-(2-pyridyl)-2-aminoethyl]-4-(4-methanesulfonylamino-2-methoxyphenyl)piperazine] |  | 2.03 ± 0.44 | 7.20 ± 1.07 | 14.20 ± 2.57 | 
O=C(C1CCCCC1)N(CCN1CCN(Cc2cc(Cl)ccc2Cl)CC1)c1ccccn1 [Ex. 14, 1-[N-cyclohexylcarbonyl-N-(2-pyridyl)-2-aminoethyl]-4-(2,5-dichlorobenzyl)piperazine] | 0.12 | 10.12 ± 1.98 |  |  | Bladder Quiescence (disappearance time of contractions) ([2]; 30 μg/kg i.v.): 2.80 ± 1.31 min; Bladder Quiescence (disappearance time of contractions) ([2]; 300 μg/kg i.v.): 21.52 ± 4.66 min
O=C(C1CCCCC1)N(CCN1CCN(c2ccccc2OCC(F)(F)F)CC1)c1ccccn1 [Ex. 2, 1-[N-cyclohexylcarbonyl-N-(2-pyridyl)-2-aminoethyl]-4-[2-(2,2,2-trifluoroethoxy)phenyl]piperazine] | 0.89 | 8.70 ± 2.88 | 27.28 ± 8.70 |  | Bladder Quiescence (disappearance time of contractions) ([2]; 30 μg/kg i.v.): 3.00 ± 0.91 min
Cc1c(-c2ccccc2)oc2c(C(=O)OCCN3CCCCC3)cccc2c1=O [Flavoxate, reference compound] |  |  | 3.04 ± 0.96 | 5.30 ± 1.00 | Bladder Quiescence (disappearance time of contractions) ([2]; 10000 μg/kg i.v.): 8.25 ± 1.90 min
CCN(CC)CC#CCOC(=O)C(O)(c1ccccc1)C1CCCCC1 (centres unmarked) [Oxybutynin, reference compound] |  | 0.92 ± 0.15 | 2.80 ± 0.60 | 6.27 ± 2.90 | Bladder Quiescence (disappearance time of contractions) ([2]; 300 μg/kg i.v.): 2.87 ± 1.12 min; ED50 ([2]; Rattus norvegicus, iv, read-out: ED50 value (extrapolated dose inducing a 30% reduction of amplitude of the contractions in 50% of treated rats)): 240 mg/kg; Duration of bladder quiescence / cessation of bladder contractions (in words) [2, 4]: does not cause cessation of bladder contractions; Effect on amplitude of bladder contractions (in words) [2, 4]: only decreased the amplitude of the contractions in a dose-related manner; Effect on bladder voiding contractions in this model system (background, in words) [3]: lower the amplitude of the bladder contractions
O=C(C1CCCCC1)N(CCN1CCN(c2cc(Cl)ccc2OCC(F)(F)F)CC1)c1ccccn1 [Ex. 3, 1-[N-cyclohexylcarbonyl-N-(2-pyridyl)-2-aminoethyl]-4-[5-chloro-2-(2,2,2-trifluoroethoxy)phenyl]piperazine] | 1.51 | 6.15 ± 1.19 | 10.13 ± 0.59 | 14.42 ± 2.36 | Bladder Quiescence (disappearance time of contractions) ([2]; 10 μg/kg i.v.): 3.15 ± 1.74 min
